Assay results taken from BigSolDB 2.1.

CC(C)[C@H](N)C(=O)O
Conditions | solubility (mole fraction)
in DMF, 293.15 K | 1.25e-06
in DMF, 303.25 K | 2.49e-06
in DMF, 313.25 K | 4.36e-06
in DMF, 323.15 K | 7.48e-06
in DMF, 333.25 K | 1.06e-05
in DMF, 343.25 K | 1.49e-05
in acetone, 293.15 K | 4.96e-07
in acetone, 302.95 K | 9.91e-07
in acetone, 313.35 K | 1.98e-06
in acetone, 323.35 K | 2.97e-06
in acetone, 328.15 K | 3.97e-06
in ethanol, 293.15 K | 1.18e-05
in ethanol, 303.75 K | 2.36e-05
in ethanol, 313.15 K | 3.69e-05
in ethanol, 323.15 K | 5.34e-05
in ethanol, 333.25 K | 7.62e-05
in ethanol, 343.25 K | 0.000109
in isopropanol, 293.45 K | 2.56e-06
in isopropanol, 303.05 K | 4.61e-06
in isopropanol, 313.35 K | 7.17e-06
in isopropanol, 323.25 K | 1.08e-05
in isopropanol, 333.05 K | 1.54e-05
in isopropanol, 343.35 K | 2.1e-05
in water, 293.55 K | 0.00884
in water, 303.05 K | 0.00938
in water, 313.15 K | 0.0101
in water, 323.05 K | 0.0109
in water, 333.25 K | 0.0117
in water, 343.15 K | 0.0129
